From patent US5278065A, “Recombinant DNA endoding an erythropoietin receptor” (Genetics Institute, Inc., priority 1991, dated 1994)
Where two headings read alike, the source gives them in different places. Each block holds one molecule with its values, some of them ahead of it.

Columns and labels:
[1] = biological target: EPO-responsive splenic erythroblasts; details: FVA-injected mice, cited from earlier work
[2] = biological target: EPO receptor; details: most cell surface binding studies; read-out: Kd, single class of binding sites; cited from earlier work
[3] = tested on: recombinant murine EPO receptor expressed in COS cells; test: Erythropoietin surface binding assay on COS-EPO-R transfectants (clone 190); design: species or system mouse
Protocol: FIG. 5 is a saturation curve showing the binding of iodinated EPO to cells expressing recombinant EPO-receptors. COS-EPO-R transfectants were incubated with various concentrations of radioiodinated human EPO for eight hours at 4° C. Non-specific binding was determined by incubating radioiodinated EPO with COS-1 monolayers, mock treated with the pXM vector (without the EPO-R cDNA insert). Also, for comparison, one binding point was determined for [^125 I]-EPO binding to COS EPO-R transfectants in the presence of […] unlabeled EPO. The inset is a Scatchard plot of the same data. Binding was compared for COS transfectants expressing EPO-R (specific binding) versus COS cells mock-transfected with the pXM plasmid without the EPO-R cDNA insert (non-specific binding). At all EPO concentrations, specific binding was approximately […] the binding to mock-transfected cells. By the above criterion, over 85% of this binding is deemed specific, though the "non-specific" binding could represent low-affinity binding to the transfected EPO receptor. […] Confluent monolayers of MEL cells, grown in 60 mm bacteriophage petri dishes pre-coated with fibronectin, were prepared (Patel and Lodish, supra (1987)). Confluent monolayers of COS-1 cells, transfected by the DEAE dextran method 72 hours before the binding assay with either two micrograms of clone 190 cDNA in pXM or two micrograms of pXM without cDNA insert (mock-transfected) per monolayer, were prepared. Monolayers were washed at 4° C. with HBS/Hepes three times. Radioiodinated EPO (10 pM to 2nM range) was added to each monolayer in LBB. Incubations were performed at 4° C. for eight hours with gentle rocking. Monolayers were washed, solubilized, and counted in the gamma counter as described. Assays for nonspecific binding were performed in which the assay mixture contained a 100-fold excess 1(100 nM) of unlabeled erythropoietin. The radioactivity bound in the assays with excess unlabeled erythropoietin (nonspecific binding) was subtracted from the total binding to yield the specific binding. All binding assays were run in duplicate.

[4] = biological target: human EPO receptor; test: Erythropoietin surface binding assay on stable CHO lines expressing the human EPO receptor; details: one hour at 37° C.
Protocol: Confluent monolayers of MEL cells, grown in 60 mm bacteriophage petri dishes pre-coated with fibronectin, were prepared (Patel and Lodish, supra (1987)). Confluent monolayers of COS-1 cells, transfected by the DEAE dextran method 72 hours before the binding assay with either two micrograms of clone 190 cDNA in pXM or two micrograms of pXM without cDNA insert (mock-transfected) per monolayer, were prepared. Monolayers were washed at 4° C. with HBS/Hepes three times. Radioiodinated EPO (10 pM to 2nM range) was added to each monolayer in LBB. Incubations were performed at 4° C. for eight hours with gentle rocking. Monolayers were washed, solubilized, and counted in the gamma counter as described. Assays for nonspecific binding were performed in which the assay mixture contained a 100-fold excess 1(100 nM) of unlabeled erythropoietin. The radioactivity bound in the assays with excess unlabeled erythropoietin (nonspecific binding) was subtracted from the total binding to yield the specific binding. All binding assays were run in duplicate. The level of cell surface expression of the human EPO receptor was determined by the erythropoietin surface binding assay, described above for the expression of the murine EPO receptor in COS-1 cells, except that radioiodinated EPO, from 10 pM to 2 nM, was bound for one hour at 37° C. in the presence of 0.02% (w/v) sodium azide and 1% (v/v) aprotinin.

[5] = purified, homogeneous erythropoietin; cited from earlier work
[6] = tested on: EPO receptor on MEL cells; test: Erythropoietin surface binding assay on MEL cell monolayers; design: species or system mouse; details: single affinity; radioiodinated human EPO, 8 hours at 4° C.; read-out: affinity of MEL cell EPO-R for EPO
Protocol: FIG. 4 is a saturation curve showing the binding of iodinated EPO to MEL cells. Non-specific binding was determined by co-incubation with 100 nM of unlabeled EPO. The MEL cells were grown on fibronectin monolayers and were incubated with various concentrations of radioiodinated human EPO for eight hours at 4° C. The specific binding is shown as the difference between total and non-specific binding. The inset is a Scatchard plot of the same data. […] For these experiments, MEL cells, grown as monolayers on fibronectin coated dishes, were incubated for eight hours at 4° C. with ^125 I EPO. Specific binding and nonspecific binding of [^125 I]-EPO, measured in the presence of 100 nM unlabeled EPO was determined. Nonspecific binding was approximately half of the total (=specific plus nonspecific) binding. Because of the relatively low number of EPO-R on MEL cells and, therefore, the small specific binding observed at low concentrations of [^125 I-EPO], in the 10-50 pM range, it is not possible to rule out a high affinity EPO-R in this range. […] Monolayers were washed, solubilized, and counted in the gamma counter as described. […] The radioactivity bound in the assays with excess unlabeled erythropoietin (nonspecific binding) was subtracted from the total binding to yield the specific binding. […]

[7] = tested on: FDCPE cells; test: Inhibition of the EPO response of FDCPE cells by secreted EPO receptor; type: cell-based, mouse; details: 0.4, 0.8 and 1 u/ml EPO; serial dilutions of CHO conditioned media (ca. 0.5 μg/ml secreted receptor)
Protocol: The FDCPE and 32DE cell lines were further characterized by their dose dependent response to EPO. A 96 well plate was seeded with 1×10^4 cells/well and incubated with EPO (0.0001 to 10 u/ml) for 24 hours and then labelled with [^3 H]-thymidine for 4hr, the cells were collected and counted for thymidine incorporation. The cells respond to EPO dose dependent manner from 0.01 to 1 u/ml.
FDCPE cells were incubated and assayed with either 0.4, 0.8 and 1 u/ml of EPO as described above but also with serial dilutions of media from a CHO line expressing the secreted EPO receptor (ca. 0.5 μg/ml).

- Kd ([4]; CHO cell line 9'.250, 34% of sites, Scatchard analysis, read-out: affinity for EPO, higher affinity sites): 0.126 nM
- Kd ([4]; CHO cell line 9'.250, Scatchard analysis, read-out: affinity for EPO, remainder of sites): 0.66 nM
- Kd ([4]; CHO cell line 10'.1.25, read-out: affinity for EPO, single affinity): 3 nM
Molecule: erythropoietin [EPO]
- Kd ([1]; read-out: dissociation constant, high affinity binding site): 0.1 nM
- Kd ([1]; read-out: dissociation constant, low affinity binding site): 0.8 nM
- Kd [2]: ~0.8 nM
- Kd ([3]; COS transfectants, Scatchard analysis, 8 hours at 4° C., read-out: dissociation constant, high affinity receptor): 0.03 nM
- Kd ([3]; COS transfectants, Scatchard analysis, 8 hours at 4° C., read-out: dissociation constant, low affinity receptor): 0.21 nM
- Kd ([3]; cell type not stated, read-out: dissociation constant of the high affinity receptor): 0.05 nM
- specific activity [5]: at least 160,000 IU per absorbance unit at 280 nanometers
- Kd [6]: ~0.24 nM

B1: secreted EPO receptor: secreted human erythropoietin receptor lacking transmembrane and cytoplasmic domains, tested as conditioned media from a CHO line (protein, UniProt P19235 25-250, looked up)
extracellular domain: APPPNLPDPKFESKAALLAARGPEELLCFTERLEDLVCFWEEAASAGVGPGNYSFSYQLEDEPWKLCRLHQAPTARGAVRFWCSLPTADTSSFVPLELRVTAASGAPRYHRVIHINEVVLLDAPVGLVARLADESGHVVLRWLPPPETPMTSHIRYEVDVSAGNGAGSVQRVEILEGRTECVLSNLRGRTRYTFAVRARMAEPSFGGFWSAWSEPVSLLTPSDLDP
modifications: extracellular domain
notes: secreted human erythropoietin receptor lacking transmembrane and cytoplasmic domains, tested as conditioned media from a CHO line
- inhibition of [3H]-thymidine incorporation into FDCPE cells [7]: inhibited the incorporation of [^3 H]-thymidine into the FDCPE cells
